The source of these data is patent US20170189366A1, “METHOD FOR TREATING DISORDERS RELATED TO COMPLEMENT ACTIVATION” (CASE WESTERN RESERVE UNIVERSITY, priority 2006, published 2017).

The test system of test [1] is laser-induced choroidal neovascularization. Briefly: Murine laser-induced CNV model. In kind it is in vivo, mouse. The conditions noted are these: i.p. injection. From the text:
FIGS. 2A-B are a series of flat mounts showing the effects on lesion size of the amidine compound in a laser-induced CNV mouse model.
As part of our exploration of different strategies for inhibiting complement activation intraocularly so as to arrive at what methodology could be most efficacious for treating AMD patients clinically, we utilized the standard murine CNV model and analyzed the effect of an i.p. injection of FUT-175. As shown diagrammatically in FIGS. 2A-B, the drug reduced lesion size by >80%.

For test [2], the system named is C3b activation on RPE-43 cell line. In words: Alternative pathway-dependent amplification of complement activation on C3b-seeded RPE-43 cell line. In kind it is cell-based. The conditions noted are these: after addition of C3, factor B, factor D, factor H, read-out: inhibition of further C3b activation. From the text: FIGS. 1A-C are a series of graphs showing the ability of an amidine compound according to the present invention to inhibit alternative pathway-dependent amplification of C3 cleavage. In FIG. 1A, factor B, factor D, and C3 were mixed in the absence or presence of increasing concentrations of the amidine compound and generation of C3a was quantified by ELISA. In FIG. 1B, factor B, factor D, C3, and a limiting amount of factor H were mixed in the absence or presence of two doses of the amidine compound following initial deposition of C3b on Bruch's membrane via anti-CEP initiated classical pathway activation. In FIG. 1C, factor B, factor D, C3, and a limiting amount of factor H were mixed in the absence or presence of two doses of the amidine compound following initial deposition of C3b on the RPE-43 cell line by anti-class I monomorphic antibody; and To determine how effective FUT-175 is in preventing alternative pathway-dependent amplification of complement activation on Bruch's membrane and RPE cells, we seeded purified Bruch's membrane from an AMD patient and the RPE-43 cell line with C3b (as would occur with anti-CEP autoantibodies) by sensitization with anti-CEP and anti-HLA monomorphic monoclonal antibodies, respectively, followed by incubation with purified C1, C4, C2, and decay of C1 and C2. […]

As usually defined, the inhibition is the drop in the measured response relative to a control, in per cent. For `N=C(N)Nc1ccc(C(=O)Oc2ccc3cc(C(=N)N)ccc3c2)cc1` [FUT-175, 6-amidino-2-napthyl-4-guanidinobenzoate dimethanesulfonate], the “reduction of lesion size” value in test [1] is greater than 80%. Besides, the inhibition at 0.3 µM in test [2] was roughly 50%.
